Measurements as given in ChEMBL document CHEMBL1135927, “Vinyl sulfide cyclized analogues of angiotensin II with high affinity and full agonist activity at the AT(1) receptor” (J Med Chem, 2002).
Calls of active or inactive are those of the source. No cut-off for these calls is given here. *1 amine or outer side, *2 acyl side, *3 side chain or, on linkers, in order; H or OH if unused. Where a SMILES comes first, the peptide text is derived from it. Bridges are numbered along the chain shown (N, C = ends). [ ]: non-standard residue; d: D form. X1 = O=C([C@H](CC/C=C\[*:3])N[*:1])[*:2]; X2 = O=C([C@H](CC/C=C/[*:3])N[*:1])[*:2]; hCys = N[C@@H](CCS)C(=O)O

Legend:
Oryctolagus cuniculus = species on record: Oryctolagus cuniculus; assay: Agonistic activity in vascular contractility study on rabbit aorta; assay type: functional, organism-based
[1] = target: T1, Type-1 angiotensin II receptor B (Rattus norvegicus, UniProt P29089); assay: In vitro binding affinity at rat liver Angiotensin II receptor, type 1 was determined based on displacement of [125I]-Ang II
T1 sequence (P29089 whole entry): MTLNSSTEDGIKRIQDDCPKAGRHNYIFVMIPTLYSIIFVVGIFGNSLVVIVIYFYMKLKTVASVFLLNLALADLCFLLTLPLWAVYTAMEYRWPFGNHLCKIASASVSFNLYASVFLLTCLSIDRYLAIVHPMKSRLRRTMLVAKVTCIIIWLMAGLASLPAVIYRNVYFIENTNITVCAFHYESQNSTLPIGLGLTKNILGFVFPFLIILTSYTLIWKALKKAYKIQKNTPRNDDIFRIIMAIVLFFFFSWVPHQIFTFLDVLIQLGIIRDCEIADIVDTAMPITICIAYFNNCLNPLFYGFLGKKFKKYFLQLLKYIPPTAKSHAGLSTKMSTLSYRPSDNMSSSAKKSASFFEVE

[2] = target: T2, Type-1 angiotensin II receptor B (Rattus norvegicus) (UniProt P29089); assay: In vitro binding affinity at rat liver Angiotensin II receptor, type 1 was determined based on displacement of [125I]-Ang II; no affinity
T2 sequence (whole entry): T1 sequence (P29089 whole entry)

SMILES | EC50 (Oryctolagus cuniculus) | Ki [1] | further results
NC(N)=NCCC[C@H](NC(=O)[C@@H](N)CC(=O)O)C(=O)N[C@H]1CS/C=C\CC[C@@H](C(=O)N[C@@H](Cc2c[nH]cn2)C(=O)N2CCC[C@H]2C(=O)N[C@@H](Cc2ccccc2)C(=O)O)NC(=O)[C@H](Cc2ccc(O)cc2)NC1=O (H-DRCY[X1]HPF-OH; thioether 3-5) | 26 nM | – | –
NC(N)=NCCC[C@H](NC(=O)[C@@H](N)CC(=O)O)C(=O)N[C@H]1CS/C=C/CC[C@@H](C(=O)N[C@@H](Cc2c[nH]cn2)C(=O)N2CCC[C@H]2C(=O)N[C@@H](Cc2ccccc2)C(=O)O)NC(=O)[C@H](Cc2ccc(O)cc2)NC1=O (H-DRCY[X2]HPF-OH; thioether 3-5) | 16.1 nM | – | –
CC(C)[C@H](NC(=O)[C@H](CCCN=C(N)N)NC(=O)[C@@H](N)CC(=O)O)C(=O)N[C@@H](Cc1ccc(O)cc1)C(=O)N[C@H]1CC/C=C\SC[C@@H](C(=O)N[C@@H](Cc2ccccc2)C(=O)O)NC(=O)[C@H](Cc2c[nH]cn2)NC1=O (H-DRVY[X1]HCF-OH; thioether 5-7) | – | – | NA [2]: inactive
CC(C)[C@H](NC(=O)[C@H](CCCN=C(N)N)NC(=O)[C@@H](N)CC(=O)O)C(=O)N[C@@H](Cc1ccc(O)cc1)C(=O)N[C@H]1CC/C=C/SC[C@@H](C(=O)N[C@@H](Cc2ccccc2)C(=O)O)NC(=O)[C@H](Cc2c[nH]cn2)NC1=O (H-DRVY[X2]HCF-OH; thioether 5-7) | – | – | NA [2]: inactive
NC(N)=NCCC[C@H](NC(=O)[C@@H](N)CC(=O)O)C(=O)N[C@H]1CCSSCC[C@@H](C(=O)N[C@@H](Cc2c[nH]cn2)C(=O)N2CCC[C@H]2C(=O)N[C@@H](Cc2ccccc2)C(=O)O)NC(=O)[C@H](Cc2ccc(O)cc2)NC1=O (H-DR[hCys]Y[hCys]HPF-OH; disulfide 3-5) | – | 0.23 nM | –

The next lines start with results.

EC50 (Oryctolagus cuniculus) | Ki [1] | SMILES | further results
– | 1.7 nM | NC(N)=NCCC[C@H](NC(=O)[C@@H](N)CC(=O)O)C(=O)N[C@H]1CS/C=C\CC[C@@H](C(=O)N[C@@H](Cc2cnc[nH]2)C(=O)N2CCC[C@H]2C(=O)N[C@@H](Cc2ccccc2)C(=O)O)NC(=O)[C@H](Cc2ccc(O)cc2)NC1=O (H-DRCY[X1]HPF-OH; thioether 3-5) | –
– | 1.7 nM | NC(N)=NCCC[C@H](NC(=O)[C@@H](N)CC(=O)O)C(=O)N[C@H]1CS/C=C/CC[C@@H](C(=O)N[C@@H](Cc2cnc[nH]2)C(=O)N2CCC[C@H]2C(=O)N[C@@H](Cc2ccccc2)C(=O)O)NC(=O)[C@H](Cc2ccc(O)cc2)NC1=O (H-DRCY[X2]HPF-OH; thioether 3-5) | –
1.4 nM | – | CC[C@H](C)[C@H](NC(=O)[C@H](Cc1ccc(O)cc1)NC(=O)[C@@H](NC(=O)[C@H](CCCNC(=N)N)NC(=O)[C@@H](N)CC(=O)O)C(C)C)C(=O)N[C@@H](Cc1cnc[nH]1)C(=O)N1CCC[C@H]1C(=O)N[C@@H](Cc1ccccc1)C(=O)O [ANGIOTENSIN II] | –
